In the NIST ThermoML archive (doi:10.1021/je201301b):
± gives the expanded uncertainty stated by the source.

Conditions: 101.33 kPa, Liquid, Vibrating tube method

Row | SMILES | mass density (298.15 K) [kg/m3] | mass density (308.15 K) [kg/m3] | mass density (318.15 K) [kg/m3] | mass density (328.15 K) [kg/m3] | mass density (338.15 K) [kg/m3] | mass density (348.15 K) [kg/m3]
1 | CCCCCCOCn1cc[n+](COCCCCCC)c1.O=S(=O)([N-]S(=O)(=O)C(F)(F)F)C(F)(F)F | 1254.89 ± 3.9 | 1246.07 ± 3.9 | 1237.28 ± 3.8 | 1228.51 ± 3.8 | 1219.66 ± 3.7 | 1210.87 ± 3.7
2 | CCCCCCOCn1cc[n+](C)c1.F[B-](F)(F)F [1-hexyloxymethyl-3-methylimidazolium tetrafluoroborate] | 1153.1 ± 3.3 | 1145.76 ± 3.2 | 1138.71 ± 3.2 | 1131.65 ± 3.2 | 1124.63 ± 3.1 | 1117.63 ± 3.1
